Experimental data published in patent US4956357A (priority 1984, dated 1990).
≈ marks a conversion by molar mass, not a printed value.

Columns and labels:
[1] = cited from earlier work
[2] = tested on: human androgen receptor
Source text: It is also believed that an androgen-action,rather than an estrogen action, acts to prevent breast enlargement.

[3] = tested on: gynecomastia; settings: alcoholic solution applied to the skin; cited from earlier work
[4] = tested on: LH; experiment: Plasma LH after DHT-hep; format: in vivo, human
Protocol: (§1) Four pubertal boys, ages 14-16 years with gynecomastia which had lasted for more than 16 months and who all had breast diameters of more than 4 cm were studied. Their breast diameters ranged from 4.0 to 7.3 cm and breast areas from 13.5 to 41.4 cm^2 with mean breast area (±SEM) 24.3±4.1 cm^2.
(§2) The patients were given 200 mg DHT-hep in sesame oil intramuscularly. […] Subsequent testing was at 2, 3 and 4 weeks, and then just prior to each dose of DHT-hep. […] In two boys, the dose of DHT-hep was increased to 400 mg. Treatment lasted 16 weeks. The patients were examined before each injection of DHT-hep and at two months and six months after therapy. Patients' unpaired, or when appropriate, paired tests were used to determine significant differences (p less than 0.05). Results were all expressed as mean±Standard Error.

[5] = tested on: human estrogen receptor; experiment: Binding to estrogen receptor; settings: heptanoate ester
[6] = tested on: LH; experiment: 24-hour urinary LH; format: in vivo, human; settings: after 1 week of treatment; before 13.0±1.3
Protocol: as §2

[7] = tested on: gynecomastia; experiment: Treatment of gynecomastia in pubertal boys (breast diameter and area); format: in vivo, human
Protocol: as §1, §2

[8] = tested on: male external genitalia; experiment: Use of DHT-hep as an androgen (development of male external genitalia); format: in vivo, human
Source text: DHT-hep was given to two patients for the purpose of stimulating development of the male external genitalia. One was a person with hypogonadotrophic hypogonadism. […] The second patient was a child in early puberty with qynecomastia.

[9] = Plasma DHT after intramuscular DHT-hep; format: in vivo, human
Protocol: as §1, §2

[10] = tested on: estradiol; experiment: Plasma estradiol after DHT-hep; format: in vivo, human; settings: for mean estradiol level: before 23.8±3.2
Protocol: as §1, §2

[11] = Solubility in sesame oil; format: physicochemical; settings: organic solvent or mixture, 37° C., limit of solubility
Protocol: (This was the limit of solubility of DHT-hep in sesame oil at 37° C. The warm sesame oil mixture was filtered in a laminar flow hood through a 0.20 micron filter into sterile injection vials. The vials were sealed, tested for sterility and pyroqens, and stored at room temperature.

[12] = tested on: FSH; experiment: 24-hour urinary FSH; format: in vivo, human; settings: after 1 week of treatment; before 8.4±0.8
Protocol: as §2

[13] = tested on: FSH; experiment: Plasma FSH after DHT-hep; format: in vivo, human; settings: for mean plasma FSH: before 190.5±50.7
Protocol: as §1, §2

[14] = tested on: testosterone; experiment: Plasma testosterone after DHT-hep; format: in vivo, human; settings: for mean plasma testosterone: before 283.8±87.5
Protocol: as §1, §2

[15] = tested on: gonadotropin; settings: in vivo; cited from earlier work
[16] = tested on: gynecomastia; settings: treatment of gynecomastia; cited from earlier work
[17] = another set of tests, 10 adolescent patients
[18] = child in early puberty with gynecomastia, 4 months
[19] = subject four, 200 mg every 3 wks, 2 mo. post treatment
[20] = subject one, 400 mg every 3 wks, 2 mo. post treatment
[21] = subject three, 200 mg every 2 wks, 2 mo. post treatment
[22] = subject two, 400 mg every 3 wks, 2 mo. post treatment
[23] = person, 200 mg/month i.m., 6 months
[24] = injections every two to three weeks
[25] = mean ± SE, two months after therapy

## C[C@]12CCC(=O)C[C@@H]1CC[C@@H]1[C@@H]2CC[C@]2(C)[C@@H](O)CC[C@@H]12 [DHT, dihydrotestosterone]
[1]; oral
  oral stability: destroyed before reaching the circulatory system
[1]; parenteral
  half-life: very short half-life
[2]
  binding to human androgen receptor: high affinity
[3]
  plasma DHT levels (systemic absorption): elevations in its plasma levels

## CCCCCCC(=O)O[C@H]1CC[C@H]2[C@@H]3CC[C@H]4CC(=O)CC[C@]4(C)[C@H]3CC[C@]12C [DHT-hep, dihydrotestosterone heptanoate]
[4]; [17]
  plasma LH change: reduction
[4]; [18]
  plasma LH: suppressed
[4]; injection, general statement
  LH: suppression
[4]; plasma LH low before treatment in three patients
  further suppression of plasma LH: not statistically significant
[4]; [19]
  LH: 14 ng/mL
[4]; subject four, 200 mg every 3 wks, after 16 wks treatment, before 25
  LH: < 11 ng/mL
[4]; [20]
  LH: < 11 ng/mL
[4]; subject one, 400 mg every 3 wks, after 16 wks treatment, before less than 11
  LH: < 11 ng/mL
[4]; [21]
  LH: 27 ng/mL
[4]; subject three, 200 mg every 2 wks, after 16 wks treatment, before less than 11
  LH: < 11 ng/mL
[4]; [22]
  LH: 19 ng/mL
[4]; subject two, 400 mg every 3 wks, after 16 wks treatment, before 15
  LH: < 11 ng/mL
[5]
  binding to human estrogen receptor: not binding tightly
[6]
  24-hour urinary LH: 7.4±3 IU/day
[7]; [17]
  breast size change: significant reduction in breast size
[7]; intramuscular injections, four adolescent boys
  regression of breast tissue: regression of breast tissue in all four adolescent boys
[7]; mean ± SE, four boys, after 16 weeks of treatment, before 24.3±4.1, p less than 0.002
  mean breast area: 7.0±1.5 cm^2
[7]; patient four, followed for nine months
  increase in breast size on follow-up: no increase in breast size
[7]; range of four boys, 16 weeks
  decrease in breast area: 66.6 to 77.5%
[7]; six to nine months after therapy was discontinued
  regrowth of breast tissue: no regrowth of breast tissue
[7]; [19]
  % Decrease in Breast Area: 70.1%
  Breast Area: 4.0 cm^2
  Breast Diameter: 2.3 cm
[7]; subject four, 200 mg every 3 wks, after 16 wks treatment
  % Decrease in Breast Area: 70.1%
[7]; subject four, 200 mg every 3 wks, after 16 wks treatment, before 4.0
  Breast Diameter: 2.3 cm
[7]; subject four, 200 mg every 3 wks, after 16 wks treatment, before 13.5
  Breast Area: 4.0 cm^2
[7]; [20]
  % Decrease in Breast Area: 75.5%
  Breast Area: 6.0 cm^2
  Breast Diameter: 2.6 cm
[7]; subject one, 400 mg every 3 wks, after 16 wks treatment
  % Decrease in Breast Area: 75.2%
[7]; subject one, 400 mg every 3 wks, after 16 wks treatment, before 5.6
  Breast Diameter: 2.7 cm
[7]; subject one, 400 mg every 3 wks, after 16 wks treatment, before 24.6
  Breast Area: 6.1 cm^2
[7]; [21]
  % Decrease in Breast Area: 77.5%
  Breast Area: 4.0 cm^2
  Breast Diameter: 2.3 cm
[7]; subject three, 200 mg every 2 wks, after 16 wks treatment
  % Decrease in Breast Area: 77.5%
[7]; subject three, 200 mg every 2 wks, after 16 wks treatment, before 4.8
  Breast Diameter: 2.3 cm
[7]; subject three, 200 mg every 2 wks, after 16 wks treatment, before 17.7
  Breast Area: 4.0 cm^2
[7]; [22]
  % Decrease in Breast Area: 69.9%
  Breast Area: 12.6 cm^2
  Breast Diameter: 3.3 cm
[7]; subject two, 400 mg every 3 wks, after 16 wks treatment
  % Decrease in Breast Area: 66.6%
[7]; subject two, 400 mg every 3 wks, after 16 wks treatment, before 7.3
  Breast Diameter: 4.2 cm
[7]; subject two, 400 mg every 3 wks, after 16 wks treatment, before 41.4
  Breast Area: 13.9 cm^2
[7]; two and six months after therapy was discontinued
  regrowth of breast tissue: No regrowth of breast tissue occurred in any subject
[8]; [18]
  penile length change: penile length increased significantly
  pubic and auxiliary hair: pubic and auxiliary hair increased
[8]; general statement
  androgenic effects: enlargement of the male genitalia, growth of pubic hair, growth of facial hair, and increase in height and weight
[8]; [23]
  erections and ejaculations: erections and ejaculations were reported
  muscle mass: significant increase in muscle mass
  pubic hair: Pubic hair increased
[8]; person, hypogonadotrophic hypogonadism, 200 mg/month i.m., 6 months, from 1.5
  penile diameter: 2.5 cm
[8]; person, hypogonadotrophic hypogonadism, 200 mg/month i.m., 6 months, from 4 cm
  penile length: 8 cm
[9]; injection, general statement
  DHT levels: elevation
[9]; one week after injection of 200 mg DHT-hep
  increase in plasma DHT: 5-8 fold
[10]; DHT-hep i.m., four boys
  plasma estradiol change: statistically significant decreases
[10]; [17]
  plasma estradiol change: reduction
[10]; injection, general statement
  Estradiol: suppression
[10]; [24]
  maintenance of estradiol suppression: maintained
[10]; mean ± SE, 16 weeks
  mean estradiol level: 12.8 ± 1.6 pg/mL
[10]; [25]
  plasma estradiol: 18.8 ± 2.5 pg/mL
[10]; mean ± SE, two weeks
  mean estradiol level: 10.8 ± 0.8 pg/mL
[10]; post injection, all subjects
  time of maximal suppression of estradiol: two
[10]; [19]
  Estradiol: 22 pg/mL
[10]; subject four, 200 mg every 3 wks, after 16 wks treatment, before 30
  Estradiol: < 10 pg/mL
[10]; [20]
  Estradiol: 12 pg/mL
[10]; subject one, 400 mg every 3 wks, after 16 wks treatment, before 16
  Estradiol: < 10 pg/mL
[10]; [21]
  Estradiol: 18 pg/mL
[10]; subject three, 200 mg every 2 wks, after 16 wks treatment, before 28
  Estradiol: 15 pg/mL
[10]; [22]
  Estradiol: 23 pg/mL
[10]; subject two, 400 mg every 3 wks, after 16 wks treatment, before 21
  Estradiol: 16 pg/mL
[10]; two of the four boys, LH and testosterone suppressed
  residual estradiol levels: significant estradiol levels persisted
[10]; two subjects, 200 mg dose
  estradiol suppression at 200 mg: not adequately suppressed
[11]
  solubility: 190 mg/mL (≈ 472 mM)
[12]
  24-hour urinary FSH: 2.9±0.1 IU/day
[13]; DHT-hep i.m., four boys
  plasma FSH change: statistically significant decreases
[13]; [17]
  plasma FSH change: reduction
[13]; injection, general statement
  FSH: suppression
[13]; mean ± SE, 16 weeks
  mean plasma FSH: 40.3 ± 7.3 ng/mL
[13]; [25]
  plasma FSH: 121.5 ± 17.4 ng/mL
[13]; mean ± SE, two weeks
  mean plasma FSH: 58.8 ± 18.5 ng/mL
[13]; [19]
  FSH: 150 ng/mL
[13]; subject four, 200 mg every 3 wks, after 16 wks treatment, before 334
  FSH: < 27 ng/mL
[13]; [20]
  FSH: 73 ng/mL
[13]; subject one, 400 mg every 3 wks, after 16 wks treatment, before 96
  FSH: 34 ng/mL
[13]; [21]
  FSH: 120 ng/mL
[13]; subject three, 200 mg every 2 wks, after 16 wks treatment, before 175
  FSH: 61 ng/mL
[13]; [22]
  FSH: 143 ng/mL
[13]; subject two, 400 mg every 3 wks, after 16 wks treatment, before 157
  FSH: 39 ng/mL
[14]; DHT-hep i.m., four boys
  plasma testosterone change: statistically significant decreases
[14]; [17]
  plasma testosterone change: reduction
[14]; [18]
  plasma testosterone: suppressed
[14]; injection, general statement
  Testosterone: suppression
[14]; [24]
  maintenance of testosterone suppression: maintained
[14]; mean ± SE, 16 weeks
  mean plasma testosterone: 33.8 ± 3.2 ng/dL
[14]; [25]
  plasma testosterone: 214.9 ± 34.8 ng/dL
[14]; mean ± SE, two weeks
  mean plasma testosterone: 29.5 ± 3.3 ng/dL
[14]; post injection
  time of rebound of testosterone to pretreatment levels: four
[14]; post injection, all subjects
  time of maximal suppression of testosterone: two
[14]; [19]
  Testosterone: 297 ng/dL
[14]; subject four, 200 mg every 3 wks, after 16 wks treatment, before 517
  Testosterone: 40 ng/dL
[14]; [20]
  Testosterone: 178 ng/dL
[14]; subject one, 400 mg every 3 wks, after 16 wks treatment, before 129
  Testosterone: < 25 ng/dL
[14]; [21]
  Testosterone: 244 ng/dL
[14]; subject three, 200 mg every 2 wks, after 16 wks treatment, before 317
  Testosterone: 34 ng/dL
[14]; [22]
  Testosterone: 140 ng/dL
[14]; subject two, 400 mg every 3 wks, after 16 wks treatment, before 174
  Testosterone: 36 ng/dL

## CCC(=O)O[C@H]1CC[C@H]2[C@@H]3CC[C@H]4CC(=O)CC[C@]4(C)[C@H]3CC[C@]12C [Dihydrotestosterone propionate]
[15]
  duration of action: one-to three
  gonadotropin suppression: not effective in gonadotropin suppression

## C[C@]12CC[C@H]3[C@@H](CCC4=CC(=O)CC[C@@]43C)[C@@H]1CC[C@@H]2O [testosterone]
[16]
  breast size: increased breast size
